Source: patent US20050136444A1 (priority 2003, published 2005)
Structures can show the parent of a compound that is named as a salt.

Test system: Hot Plate Test
Assay: 52° C. hot plate test after systemic administration
Type: in vivo, rat
Conditions: rats, 10 mg/kg i.p., vs vehicle
Procedure: Rats were injected with either vehicle or 10 mg/kg Compound 2616 (i.p.) and then assessed for possible changes in sensitivity to a noxious thermal stimulus using the 52° C. hot plate test.

## NC(N)=NN=Cc1ccc(-c2ccccc2C(F)(F)F)o1 (racemic) [Compound 2616, 1-[(5-(2-(Trifluoromethyl)phenyl)-furan-2-yl)-methyleneamino]guanidine Hydrochloride]
  hot plate latency (thermal hyperalgesia): produced a significant reduction in the hot plate latency
